We go through six compounds from ChEMBL document CHEMBL5303573, “Mapping human microbiome drug metabolism by gut bacteria and their genes” (Nature, 2019).

The nature of data set [1]: The drug is tested on Edwardsiella tarda strain: ATCC23685 for biotransformation. The drug concentrations were measured before and after a 12-h incubation by liquid-chromatography-coupled mass spectrometry (LC–MS). The settings on record: 2 µM.
Data set [2] can be described thus: The drug is tested on Anaerococcus hydrogenalis strain: DSM7454 for biotransformation. The drug concentrations were measured before and after a 12-h incubation by liquid-chromatography-coupled mass spectrometry (LC–MS). The settings on record: 2 µM.
Data set [3] can be described thus: The drug is tested on Bacteroides dorei strain: DSM17855 for biotransformation. The drug concentrations were measured before and after a 12-h incubation by liquid-chromatography-coupled mass spectrometry (LC–MS). The following applies: phocaeicola dorei, 2 µM.
Data set [4] can be described thus: The drug is tested on Bacteroides fragilis strain: HMW610 for biotransformation. The drug concentrations were measured before and after a 12-h incubation by liquid-chromatography-coupled mass spectrometry (LC–MS). The following applies: 2 µM.
Data set [5] in a line: The drug is tested on Blautia luti strain: DSM14534 for biotransformation. The drug concentrations were measured before and after a 12-h incubation by liquid-chromatography-coupled mass spectrometry (LC–MS). The data set is classed as ADME. Also on record: dose 2 uM, timepoint 0 vs 12 hours. The settings on record: 2 µM.
The conditions of data set [6]: enterocloster bolteae, 12 h, 2 µM.
Description: The drug is tested on Clostridium bolteae strain: ATCCBAA-613 for biotransformation. The drug concentrations were measured before and after a 12-h incubation by liquid-chromatography-coupled mass spectrometry (LC–MS)
Data set [7] is described as follows: The drug is tested on Eubacterium rectale strain: ATCC33656 for biotransformation. The drug concentrations were measured before and after a 12-h incubation by liquid-chromatography-coupled mass spectrometry (LC–MS). The following applies: agathobacter rectalis, 2 µM.
For data set [8] the following is noted: anaerostipes sp., 12 h, 2 µM.
Description: The drug is tested on Anaerostipes sp. strain: fecal isolate for biotransformation. The drug concentrations were measured before and after a 12-h incubation by liquid-chromatography-coupled mass spectrometry (LC–MS)
Data set [9] is described as follows: The drug is tested on Coprococcus comes strain: ATCC27758 for biotransformation. The drug concentrations were measured before and after a 12-h incubation by liquid-chromatography-coupled mass spectrometry (LC–MS). The class given is ADME. The following applies: 2 µM. Also on record: dose 2 uM, timepoint 0 vs 12 hours.
Data set [10] can be described thus: The drug is tested on Clostridium ramosum strain: DSM1402 for biotransformation. The drug concentrations were measured before and after a 12-h incubation by liquid-chromatography-coupled mass spectrometry (LC–MS). The settings on record: thomasclavelia ramosa, 2 µM.
Data set [11] in a line: The drug is tested on Alistipes indistinctus strain: DSM22520 for biotransformation. The drug concentrations were measured before and after a 12-h incubation by liquid-chromatography-coupled mass spectrometry (LC–MS). The following applies: 2 µM.
A short description of data set [12]: The drug is tested on Collinsella aerofaciens strain: ATCC25986 for biotransformation. The drug concentrations were measured before and after a 12-h incubation by liquid-chromatography-coupled mass spectrometry (LC–MS). The following applies: 2 µM.
The nature of data set [13]: The drug is tested on Bacteroides caccae strain: ATCC43185 for biotransformation. The drug concentrations were measured before and after a 12-h incubation by liquid-chromatography-coupled mass spectrometry (LC–MS). The settings on record: 2 µM.
A short description of data set [14]: The drug is tested on Ruminococcus torques strain: ATCC27756 for biotransformation. The drug concentrations were measured before and after a 12-h incubation by liquid-chromatography-coupled mass spectrometry (LC–MS). The class given is ADME. Set-up: dose 2 uM, timepoint 0 vs 12 hours. The following applies: 2 µM.
Data set [15] in a line: The drug is tested on Bacteroides sp. WH2 strain: WH2 for biotransformation. The drug concentrations were measured before and after a 12-h incubation by liquid-chromatography-coupled mass spectrometry (LC–MS). The settings on record: bacteroides sp. wh2, 12 h, 2 µM.
The nature of data set [16]: The drug is tested on Enterobacter cancerogenus strain: ATCC35316 for biotransformation. The drug concentrations were measured before and after a 12-h incubation by liquid-chromatography-coupled mass spectrometry (LC–MS). The settings on record: 2 µM.
A short description of data set [17]: The drug is tested on Bacteroides fragilis strain: HMW615 for biotransformation. The drug concentrations were measured before and after a 12-h incubation by liquid-chromatography-coupled mass spectrometry (LC–MS). The following applies: 2 µM.
Data set [18] can be described thus: The drug is tested on Bacteroides finegoldii strain: DSM17565 for biotransformation. The drug concentrations were measured before and after a 12-h incubation by liquid-chromatography-coupled mass spectrometry (LC–MS). The settings on record: 2 µM.
The nature of data set [19]: The drug is tested on Ruminococcus gnavus strain: ATCC29149 for biotransformation. The drug concentrations were measured before and after a 12-h incubation by liquid-chromatography-coupled mass spectrometry (LC–MS). The settings on record: mediterraneibacter gnavus, 2 µM.
The nature of data set [20]: The drug is tested on Bifidobacterium ruminantium strain: fecal isolate for biotransformation. The drug concentrations were measured before and after a 12-h incubation by liquid-chromatography-coupled mass spectrometry (LC–MS). The settings on record: 2 µM.

As to `C#C[C@]1(OC(C)=O)CC[C@H]2[C@@H]3CCC4=C/C(=N/O)CC[C@@H]4[C@H]3CC[C@@]21CC` [NORGESTIMATE], the “Bacterial Biotransformation” value in data set [1] is recorded as “Compound NOT metabolized”; in data set [2], “Compound NOT metabolized”; in data set [3] it was “Compound metabolized”; in data set [4] it was “Compound NOT metabolized”; in [5] it was “Compound NOT metabolized”; in data set [6] it was “Compound NOT metabolized”. For the same compound, the “Bacterial Biotransformation” value in [7] is “Compound metabolized”; in data set [8], “Compound NOT metabolized”; in data set [9], “Compound NOT metabolized”; in data set [10], “Compound NOT metabolized”; in [11], “Compound NOT metabolized”; in [12] it was “Compound NOT metabolized”. The “Bacterial Biotransformation” value is given as “Compound NOT metabolized” in [13]; “Compound NOT metabolized” in [14]; “Compound NOT metabolized” in data set [15]; “Compound NOT metabolized” in data set [16]; “Compound NOT metabolized” in data set [17]; “Compound metabolized” in data set [18]. In addition, the “Bacterial Biotransformation” value in data set [19] and in data set [20] was “Compound NOT metabolized” each time.
Consider `C#C[C@]1(O)CC[C@H]2[C@@H]3CCC4=CC(=O)CC[C@@H]4[C@H]3CC[C@@]21CC` [LEVONORGESTREL], for which the “Bacterial Biotransformation” value is given as “Compound NOT metabolized” in data set [1]; “Compound NOT metabolized” in data set [2]; “Compound metabolized” in data set [3]; “Compound metabolized” in data set [4]; “Compound NOT metabolized” in [5]; “Compound NOT metabolized” in [6]. Also, the “Bacterial Biotransformation” value in [7], in [8], in data set [9], in data set [10], in [11] and in [12] was “Compound NOT metabolized” in each case. Further, the “Bacterial Biotransformation” value in [13] was “Compound metabolized”; in [15] it was “Compound metabolized”; in [16], “Compound NOT metabolized”; in [17] it was “Compound metabolized”; in data set [18], “Compound NOT metabolized”; in data set [19], “Compound metabolized”. Also, the “Bacterial Biotransformation” value in [20] is given as “Compound NOT metabolized”.
In the case of `COc1ccc2c(c1)c(CC(=O)O)c(C)n2C(=O)c1ccc(Cl)cc1` [INDOMETHACIN], the “Bacterial Biotransformation” value in [1] is reported as “Compound NOT metabolized”; in [2] it was “Compound NOT metabolized”; in data set [3], “Compound metabolized”; in data set [4], “Compound NOT metabolized”; in data set [5], “Compound NOT metabolized”; in data set [6] it was “Compound metabolized”. In addition, the “Bacterial Biotransformation” value is on record as “Compound NOT metabolized” in data set [7]; “Compound metabolized” in data set [8]; “Compound NOT metabolized” in [9]; “Compound NOT metabolized” in data set [10]; “Compound metabolized” in data set [11]; “Compound NOT metabolized” in data set [12]. Besides, the “Bacterial Biotransformation” value is given as “Compound metabolized” in data set [13]; “Compound NOT metabolized” in data set [14]; “Compound metabolized” in data set [15]; “Compound NOT metabolized” in data set [16]; “Compound NOT metabolized” in [17]; “Compound metabolized” in [18]. The “Bacterial Biotransformation” value in data set [19] and in [20] was “Compound NOT metabolized” in each case.
In the case of `O=C1[C@H](CC[C@H](O)c2ccc(F)cc2)[C@@H](c2ccc(O)cc2)N1c1ccc(F)cc1` [EZETIMIBE], the “Bacterial Biotransformation” value in data set [1], in [2], in data set [3], in data set [4], in data set [5] and in data set [6] was “Compound NOT metabolized” each time. Moreover, the “Bacterial Biotransformation” value in data set [7], in data set [8], in [9], in data set [10], in data set [11] and in data set [12] was “Compound NOT metabolized” throughout. In addition, the “Bacterial Biotransformation” value in data set [14], in data set [15], in [16], in data set [17], in data set [18] and in [19] was “Compound NOT metabolized” throughout. Moreover, in data set [20], the “Bacterial Biotransformation” value was “Compound NOT metabolized”.
Regarding `CC(=O)O[C@]1(C(C)=O)CC[C@H]2[C@@H]3C=C(C)C4=CC(=O)CC[C@]4(C)[C@H]3CC[C@@]21C` [MEGESTROL ACETATE], the “Bacterial Biotransformation” value in [1] is “Compound NOT metabolized”; in [2], “Compound NOT metabolized”; in data set [3], “Compound metabolized”; in data set [4], “Compound metabolized”; in data set [6], “Compound NOT metabolized”; in data set [7], “Compound NOT metabolized”. Also, the “Bacterial Biotransformation” value in data set [8] is “Compound NOT metabolized”; in data set [9] it was “Compound NOT metabolized”; in data set [10], “Compound NOT metabolized”; in data set [11], “Compound metabolized”; in data set [12], “Compound metabolized”; in [14] it was “Compound NOT metabolized”. Besides, the “Bacterial Biotransformation” value is listed as “Compound NOT metabolized” in [16]; “Compound metabolized” in data set [17]; “Compound NOT metabolized” in data set [18]; “Compound NOT metabolized” in [19]; “Compound metabolized” in [20].
As for `CN1CCN(C(=O)O[C@H]2c3nccnc3C(=O)N2c2ccc(Cl)cn2)CC1` [ESZOPICLONE], the “Bacterial Biotransformation” value is on record as “Compound NOT metabolized” in [1]; “Compound NOT metabolized” in data set [2]; “Compound NOT metabolized” in data set [3]; “Compound NOT metabolized” in data set [4]; “Compound NOT metabolized” in [5]; “Compound metabolized” in data set [6]. Moreover, the “Bacterial Biotransformation” value in [7] is reported as “Compound NOT metabolized”; in data set [8], “Compound NOT metabolized”; in data set [9] it was “Compound NOT metabolized”; in data set [10], “Compound NOT metabolized”; in data set [11] it was “Compound NOT metabolized”; in [12] it was “Compound metabolized”. The “Bacterial Biotransformation” value in [13], in data set [14], in data set [15], in data set [16], in data set [17] and in data set [19] was “Compound NOT metabolized” in each case. Moreover, the “Bacterial Biotransformation” value in [20] was “Compound NOT metabolized”.
